Patent US5155108A, “Imidazopyridazines and use as antiasthmatic agents” (Takeda Chemical Industries, Ltd., priority 1990, dated 1992)

Test system: bronchoconstriction induced by PAF
Test: Effect on bronchoconstriction induced by platelet activating factor (PAF) in guinea pigs (Konzett-Rossler method)
Assay type: in vivo, guinea pig (male Hartley)
Settings: Cavia porcellus, po, 30 mg/kg orally 1 hour before PAF (1 μg/kg i.v.), suspended in 5% gum arabic, recorded for 15 minutes, male Hartley guinea pigs
Experimental: Effect On bronchoconstriction Induced By Platelet Activating Factor (PAF) In Guinea Pigs
Male Hartley guinea pigs (body weight 500 g) were used. The bronchoconstriction reaction in the guinea pig which has intravenously received PAF (1 μg/Kg) was measured by the Konzett-Rossler method. The trachea of the guinea pig with its back fixed was incised under anesthesia condition with urethane (intraperitoneal injection, 1.50 g/kg) and connected with an artificial respirator via a cannula. The branch of the tracheal cannula was connected with a transducer (7020 type, Ugobasile). Air was sent to the trachea at the volume of 3-7 ml/stroke, at the rate of 70 strokes/min. at load pressure of 10 cm H2 O to lung and overflowed air volume was recorded with Rectegraph (Recte-Hori-8s, Sanei Sokuki) via the transducer. After the guinea pig was treated with gallamine (1 mg/kg, i.v.), PAF (1 μg/kg) dissolved in a physiological saline solution was administered to the guinea pig via a jugular venous cannula and the bronchoconstriction reaction induced thereby was recorded for 15 minutes. The drug (30 mg/kg) suspended in a 5% gum arabic solution was administered orally 1 hour before the injection of PAF.

SMILES | inhibition in vivo at 30 mg/kg [%]
NS(=O)(=O)CCCCSc1ccc2nccn2n1 [Example 30] | 73
NS(=O)(=O)CCC(Sc1ccc2nccn2n1)c1ccccc1 (stereo not drawn) [Example 34] | 38
CCC(CC)(COc1ccc2nccn2n1)CS(N)(=O)=O [Example 47, 6-[(2,2-diethyl-3-sulfamoylpropyl)oxy]imidazo[1,2-b]pyridazine] | 90
O=S(=O)(CCCSc1ccc2nccn2n1)NCCc1cccnc1 [Example 19] | 41
NS(=O)(=O)CCCSc1ccc2ncc(Cl)n2n1 [Example 43, 3-chloro-6[(3-sulfamoylpropyl)thio]imidazo[1,2-b]pyridazine] | 54
CN(C)S(=O)(=O)CCCSc1ccc2nccn2n1 [Example 9] | 52
CC(C)(COc1ccc2nccn2n1)CS(N)(=O)=O [Example 39, 6-[(2,2-dimethyl-3-sulfamoylpropyl)oxy]imidazo[1,2-b]pyridazine] | 72
CCC(COc1ccc2nccn2n1)CS(N)(=O)=O (stereo not drawn) [Example 42] | 55
CC(CSc1ccc2nccn2n1)CS(N)(=O)=O (stereo not drawn) [Example 31] | 74
NS(=O)(=O)CCCOc1ccc2nccn2n1 [Example 41] | 66
CC(C)(COc1ccc2ncc(Cl)n2n1)CS(N)(=O)=O [Example 45, 3-chloro-6-[(2,2-dimethyl-3-sulfamoylpropyl)oxy]imidazo[1,2-b]pyridazine] | 50
NS(=O)(=O)CCSc1ccc2nccn2n1 [Example 26] | 42
NS(=O)(=O)CC(CSc1ccc2nccn2n1)c1ccccc1 (stereo not drawn) [Example 33] | 52
NS(=O)(=O)CCCCCSc1ccc2nccn2n1 [Example 29, 6-(5-sulfamoylpentylthio)imidazo[1,2-b]pyridazine] | 51
NS(=O)(=O)CCCSc1ccc2nccn2n1 [Example 1, 6-(3-sulfamoylpropylthio)imidazo [1,2-b]pyridazine] | 71
CCC(CSc1ccc2nccn2n1)CS(N)(=O)=O (stereo not drawn) [Example 32] | 80
Cn1cccc1CCNS(=O)(=O)CCCSc1ccc2nccn2n1 [Example 20] | 41
O=S(=O)(CCSc1ccc2nccn2n1)NC1CC1 [Example 25, 6-[2-(N-cyclopropylsulfamoyl)ethylthio] imidazo[1,2-b]pyridazine] | 47
C[C@H](COc1ccc2nccn2n1)CS(N)(=O)=O [Example 40, (+)-6-[(2-(R)-methyl-3-sulfamoylpropyl)oxy]imidazo[1,2-b]pyridazine] | 53
CC(C)(CSc1ccc2nccn2n1)CS(N)(=O)=O [Example 37, 6-[(3-sulfamoyl-2,2-dimethylpropyl)thio]imidazo[1,2-b]pyridazine] | 99
C[C@@H](CSc1ccc2nccn2n1)CS(N)(=O)=O [Example 35, (+)-6-[(2-(S)-methyl-3-sulfamoylpropyl)thio]imidazo[1,2-b]pyridazine] | 79
